From patent publication US11759461B2, “Small molecule inhibitors of cancer stem cells and mesenchymal cancer types” (The Scripps Research Institute, priority 2017, dated 2023)
pIC50: −log10 of the molar value.

These molecules were tested on FOXC2-expressing HMLER cells (assay: Cell Titer Glo viability of FOXC2-HMLER cells (high throughput screen and 10-point response)). Conditions: Homo sapiens; scored relative to parent compound 2; 72 hours; read-out: Activity Score, inhibition of FOXC2-expressing HMLER cells by Formula II compounds.
Type: cell-based
Protocol: For high throughput screening, FOXC2-HMLER and HMLER cells were plated at 10^3 cells per well in white 384-well plates in 50 μL of MEGM medium (Lonza). Cells were allowed to attach for one hour before compound was transferred to each well as a DMSO solution using a 100 nL pintool head affixed to a PerkinElmer FX instrument. After 72-hour incubation, 30 μL of a Cell Titer Glo solution (diluted 1:6 in water, Promega) was dispensed into each well and luminance values were recorded using an Envision plate reader. […] All other miniaturized, selective viability experiments were performed as above using the indicated growth medium.
More specifically, in the high throughput screening assay above, each cell line was plated at 1,000 cells per well in 384-well plates, treated for 72 hours with 2 μM of test compound, and the viability of each line was determined in parallel by Cell Titer Glo (Promega) luminance measurements.

`COc1ccc2cc(CNc3ccccc3)c(=O)n(CC(=O)Nc3ccccc3OC)c2c1` [Compound 2CS] and `COc1ccccc1NC(=O)Cn1c(=O)c(CNc2ccccc2)cc2ccc(C)cc21` [Compound 2DU] cannot be ordered by pIC50: less than 4.70 for the first, less than 4.70 for the second.

`CCc1ccc(NCc2cc3ccc(OC)cc3n(CC(=O)Nc3ccc(C)c(C)c3)c2=O)cc1` [Compound 2CT] and `CCc1ccc(NC(=O)Cn2c(=O)c(CNc3ccc(C)cc3)cc3ccc(OC)cc32)cc1` [Compound 2CU] cannot be ordered by pIC50: less than 4.70 for the first, less than 4.70 for the second.

`CCOc1ccc(NC(=O)Cn2c(=O)c(CNc3ccc(OC)cc3)cc3ccc(OC)cc32)cc1` [Compound 2CV] and `CCc1ccc(NC(=O)Cn2c(=O)c(CNc3ccc(OC)cc3)cc3ccc(OC)cc32)cc1` [Compound 2DL] cannot be ordered by pIC50: less than 4.70 for the first, less than 4.70 for the second.

`CCc1ccc(NCc2cc3ccc(OC)cc3n(CC(=O)Nc3ccc(CC)cc3)c2=O)cc1` [Compound 2CW] and `CCc1ccc(NCc2cc3ccc(OC)cc3n(CC(=O)Nc3ccc(C)cc3)c2=O)cc1` [Compound 2DT] cannot be ordered by pIC50: less than 4.70 for the first, less than 4.70 for the second.

`COc1ccc2cc(CNc3ccccc3)c(=O)n(CC(=O)Nc3ccc(C(C)=O)cc3)c2c1` [Compound 2CX] and `COc1ccc2cc(CNc3ccccc3)c(=O)n(CC(=O)Nc3ccc(C)cc3)c2c1` [Compound 2ET] cannot be ordered by pIC50: less than 4.70 for the first, less than 4.70 for the second.

`COc1cc(NC(=O)Cn2c(=O)c(CNc3ccc(C)cc3)cc3ccc(OC)cc32)cc(OC)c1` [Compound 2CY] and `COc1ccc(NC(=O)Cn2c(=O)c(CNc3ccc(C)cc3)cc3ccc(OC)cc32)cc1` [Compound 2EI] cannot be ordered by pIC50: less than 4.70 for the first, less than 4.70 for the second.

`COc1cc2cc(CNc3ccccc3)c(=O)n(CC(=O)Nc3ccccc3C)c2cc1OC` [Compound 2CZ] and `COc1ccccc1NC(=O)Cn1c(=O)c(CNc2ccccc2)cc2cc(OC)c(OC)cc21` [Compound 2ES] cannot be ordered by pIC50: less than 4.70 for the first, less than 4.70 for the second.

Compared with `CCOC(=O)c1ccccc1NC(=O)Cn1c(=O)c(CNc2ccccc2)cc2ccc(OC)cc21` [Compound 2C], `CCOC(=O)c1ccccc1NC(=O)Cn1c(=O)c(CNc2ccc(C)cc2)cc2ccc(OC)cc21` [Compound 2D] is lower in pIC50: greater than 6.00 for the first, 4.70 to 6.00 for the second. The first is the more potent here.

`Cc1ccc(NCc2cc3cc4c(cc3n(CC(=O)Nc3ccccc3)c2=O)OCCO4)cc1` [Compound 2DA] and `CCc1ccc(NCc2cc3cc4c(cc3n(CC(=O)Nc3ccccc3)c2=O)OCCO4)cc1` [Compound 2DW] cannot be ordered by pIC50: less than 4.70 for the first, less than 4.70 for the second.

`COc1ccc2cc(CNc3ccccc3)c(=O)n(CC(=O)Nc3ccccc3Cl)c2c1` [Compound 2DB] and `COc1ccc2cc(CNc3ccccc3)c(=O)n(CC(=O)Nc3ccccc3F)c2c1` [Compound 2DD] cannot be ordered by pIC50: less than 4.70 for the first, less than 4.70 for the second.

`CC(=O)c1ccc(NC(=O)Cn2c(=O)c(CNc3ccc(C)cc3)cc3cc4c(cc32)OCCO4)cc1` [Compound 2DC] and `Cc1ccc(NCc2cc3cc4c(cc3n(CC(=O)Nc3cccc(C)c3)c2=O)OCCO4)cc1` [Compound 2DG] cannot be ordered by pIC50: less than 4.70 for the first, less than 4.70 for the second.

`CCc1ccc(NCc2cc3cc(OC)c(OC)cc3n(CC(=O)Nc3cccc(C)c3)c2=O)cc1` [Compound 2DE] and `CCc1ccc(NCc2cc3cc(OC)c(OC)cc3n(CC(=O)Nc3ccc(C)c(C)c3)c2=O)cc1` [Compound 2EC] cannot be ordered by pIC50: less than 4.70 for the first, less than 4.70 for the second.

`COc1ccc2cc(CNc3ccc(C)cc3)c(=O)n(CC(=O)Nc3ccc(F)cc3F)c2c1` [Compound 2DF] and `COc1ccc2cc(CNc3ccc(C)cc3)c(=O)n(CC(=O)Nc3cccc(F)c3)c2c1` [Compound 2DN] cannot be ordered by pIC50: less than 4.70 for the first, less than 4.70 for the second.

`COc1ccc(NC(=O)Cn2c(=O)c(CNc3ccccc3)cc3ccc(OC)cc32)cc1` [Compound 2DH] and `COc1cccc(NC(=O)Cn2c(=O)c(CNc3ccccc3)cc3ccc(OC)cc32)c1` [Compound 2DX] cannot be ordered by pIC50: less than 4.70 for the first, less than 4.70 for the second.

`COc1cc2cc(CNc3ccc(C)cc3)c(=O)n(CC(=O)Nc3ccc(C)c(C)c3)c2cc1OC` [Compound 2DI] and `COc1cc2cc(CNc3ccc(C)cc3)c(=O)n(CC(=O)Nc3cc(C)cc(C)c3)c2cc1OC` [Compound 2DJ] cannot be ordered by pIC50: less than 4.70 for the first, less than 4.70 for the second.

`CCc1ccc(NCc2cc3cc(OC)c(OC)cc3n(CC(=O)Nc3ccccc3C)c2=O)cc1` [Compound 2DK] and `COc1ccc(NCc2cc3cc(OC)c(OC)cc3n(CC(=O)Nc3ccccc3C)c2=O)cc1` [Compound 2EM] cannot be ordered by pIC50: less than 4.70 for the first, less than 4.70 for the second.

`COc1ccc2cc(CNc3ccccc3)c(=O)n(CC(=O)Nc3ccccc3)c2c1` [Compound 2DM] and `COc1ccc2cc(CNc3ccccc3)c(=O)n(CC(=O)Nc3cccc(C)c3)c2c1` [Compound 2ED] cannot be ordered by pIC50: less than 4.70 for the first, less than 4.70 for the second.

`COc1ccc(NC(=O)Cn2c(=O)c(CNc3ccccc3)cc3cc(OC)c(OC)cc32)cc1` [Compound 2DO] and `COc1cc2cc(CNc3ccccc3)c(=O)n(CC(=O)Nc3cccc(C)c3)c2cc1OC` [Compound 2EH] cannot be ordered by pIC50: less than 4.70 for the first, less than 4.70 for the second.

`COc1cc2cc(CNc3ccccc3)c(=O)n(CC(=O)Nc3cc(Cl)ccc3C)c2cc1OC` [Compound 2DP] and `COc1cc2cc(CNc3ccccc3)c(=O)n(CC(=O)Nc3ccccc3)c2cc1OC` [Compound 2EP] cannot be ordered by pIC50: less than 4.70 for the first, less than 4.70 for the second.

`CCc1ccc(NCc2cc3ccc(OC)cc3n(CC(=O)NCc3ccc(C)cc3)c2=O)cc1` [Compound 2DQ] and `COc1ccc2cc(CNc3ccc(C)cc3)c(=O)n(CC(=O)NCc3ccc(F)cc3)c2c1` [Compound 2DZ] cannot be ordered by pIC50: less than 4.70 for the first, less than 4.70 for the second.

`COc1ccc2cc(CNc3ccc(C)cc3)c(=O)n(CC(=O)Nc3ccc(C)c(Cl)c3)c2c1` [Compound 2DR] and `COc1ccc(NCc2cc3ccc(OC)cc3n(CC(=O)Nc3ccc(C)c(Cl)c3)c2=O)cc1` [Compound 2EO] cannot be ordered by pIC50: less than 4.70 for the first, less than 4.70 for the second.

`COc1ccc2cc(CNc3ccccc3)c(=O)n(CC(=O)Nc3ccc(C(C)C)cc3)c2c1` [Compound 2DS] and `COc1ccc2cc(CNc3ccc(C)cc3)c(=O)n(CC(=O)Nc3ccc(C(C)C)cc3)c2c1` [Compound 2ER] cannot be ordered by pIC50: less than 4.70 for the first, less than 4.70 for the second.

`CCc1ccc(NCc2cc3ccc(OC)cc3n(CC(=O)Nc3ccccc3OC)c2=O)cc1` [Compound 2DV] and `CCc1ccc(NCc2cc3ccc(OC)cc3n(CC(=O)NCc3ccccc3)c2=O)cc1` [Compound 2EA] cannot be ordered by pIC50: less than 4.70 for the first, less than 4.70 for the second.

`COc1ccc(NCc2cc3cc4c(cc3n(CC(=O)NCc3ccccc3)c2=O)OCCO4)cc1` [Compound 2DY] and `COc1ccc2cc(CNc3ccccc3)c(=O)n(CC(=O)Nc3ccc4c(c3)OCCO4)c2c1` [Compound 2EG] cannot be ordered by pIC50: less than 4.70 for the first, less than 4.70 for the second.

`COc1ccc2cc(CNc3ccc(C)cc3)c(=O)n(CC(=O)Nc3ccccc3Cl)c2c1` [Compound 2EB] and `COc1ccc2cc(CNc3ccc(C)cc3)c(=O)n(CC(=O)Nc3cccc(C)c3)c2c1` [Compound 2EL] cannot be ordered by pIC50: less than 4.70 for the first, less than 4.70 for the second.

`COc1ccc2cc(CNc3ccccc3)c(=O)n(CC(=O)Nc3cccc(C(F)(F)F)c3)c2c1` [Compound 2EE] and `COc1ccc2cc(CNc3ccccc3)c(=O)n(CC(=O)Nc3ccc(F)c(F)c3)c2c1` [Compound 2EJ] cannot be ordered by pIC50: less than 4.70 for the first, less than 4.70 for the second.

`COc1ccccc1NC(=O)Cn1c(=O)c(CNc2ccccc2)cc2cc3c(cc21)OCCO3` [Compound 2EF] and `O=C(Cn1c(=O)c(CNc2ccccc2)cc2cc3c(cc21)OCCO3)Nc1ccccc1` [Compound 2EQ] cannot be ordered by pIC50: less than 4.70 for the first, less than 4.70 for the second.

`CCc1ccc(NCc2cc3ccc(OC)cc3n(CC(=O)Nc3ccc(C(C)C)cc3)c2=O)cc1` [Compound 2EK] and `COc1ccc2cc(CNc3ccccc3)c(=O)n(CC(=O)Nc3ccc(C)cc3C)c2c1` [Compound 2EN] cannot be ordered by pIC50: less than 4.70 for the first, less than 4.70 for the second.
